Reference: US5593984A, “Cephalosporin derivatives” (Yuhan Corporation, priority 1992, dated 1997)
Values after ≈ are worked out from the molar mass of the structure shown.

Legend:
Format in all cases: cell-based
K. pneumoniae NCTC 9632 = assay: MIC by agar dilution, K. pneumoniae NCTC 9632; details: Klebsiella pneumoniae, NCTC9632, 17 h; K. pneumoniae NCTC 9632; agar dilution, Mueller-Hinton agar; read-out: Minimal Inhibitory Concentration (MIC)
Experimental: (§1) These MIC values were determined by agar dilution method: that is, two-fold dilutions of each of the test compounds were made and dispersed in a Mueller-Hinton agar medium; standard test strain which had the 10^6 CFU (Colony Forming Unit) per ml was inoculated on the medium with microplanter (Toyo, Japan), and incubated at 35°-37° C. for 17±1 hours. The structures of Ceftazidime (CAZ) and Cefotaxime (CTX) which are used as control compounds are as follows: [drawing 12]

Ps. aeruginosa DY-2 = assay: MIC by agar dilution, Ps. aeruginosa DY-2; details: Pseudomonas aeruginosa, DY2, 17 h; Ps. aeruginosa DY-2; agar dilution, Mueller-Hinton agar; read-out: Minimal Inhibitory Concentration (MIC)
Experimental: as §1

[1] = test system: Ps. aeruginosa ATCC 10145; assay: MIC by agar dilution, Ps. aeruginosa ATCC 10145; details: Pseudomonas aeruginosa, ATCC10145, 17 h, Mueller-Hinton agar, read-out: Minimal Inhibitory Concentration (MIC)
Experimental: as §1

Ent. cloacae IFO 13535 = assay: MIC by agar dilution, Ent. cloacae IFO 13535; details: Enterobacter cloacae, IFO13535, 17 h; Ent. cloacae IFO 13535; agar dilution, Mueller-Hinton agar; read-out: Minimal Inhibitory Concentration (MIC)
Experimental: as §1

Staph. aureus Smith = assay: MIC by agar dilution, Staph. aureus Smith; details: Staphylococcus aureus, 17 h, Mueller-Hinton agar, read-out: Minimal Inhibitory Concentration (MIC)
Experimental: as §1

Prov. stuartii IFO 12930 = assay: MIC by agar dilution, Prov. stuartii IFO 12930; details: Providencia stuartii, IFO12930, 17 h, Mueller-Hinton agar, read-out: Minimal Inhibitory Concentration (MIC)
Experimental: as §1

M. morganii DY-1 = assay: MIC by agar dilution, M. morganii DY-1; details: Morganella morganii, DY1, 17 h; M. morganii DY-1; agar dilution, Mueller-Hinton agar; read-out: Minimal Inhibitory Concentration (MIC)
Experimental: as §1

[2] = test system: Ps. aeruginosa NCTC 10490; assay: MIC by agar dilution, Ps. aeruginosa NCTC 10490; details: Pseudomonas aeruginosa, NCTC10490, 17 h, Mueller-Hinton agar, read-out: Minimal Inhibitory Concentration (MIC)
Experimental: as §1

E. coli No. 29 = assay: MIC by agar dilution, E. coli No. 29; details: Escherichia coli, 17 h; E. coli No. 29; agar dilution, Mueller-Hinton agar; read-out: Minimal Inhibitory Concentration (MIC)
Experimental: as §1

E. coli DY-1 = assay: MIC by agar dilution, E. coli DY-1; details: Escherichia coli, DY1, 17 h; E. coli DY-1; agar dilution, Mueller-Hinton agar; read-out: Minimal Inhibitory Concentration (MIC)
Experimental: as §1

P. vulgaris NCTC 8313 = assay: MIC by agar dilution, P. vulgaris NCTC 8313; details: Proteus vulgaris, NCTC8313, 17 h; P. vulgaris NCTC 8313; agar dilution, Mueller-Hinton agar; read-out: Minimal Inhibitory Concentration (MIC)
Experimental: as §1

E. coli NIHJ JC-2 = assay: MIC by agar dilution, E. coli NIHJ JC-2; details: Escherichia coli, NIHJJC2, 17 h; E. coli NIHJ JC-2; agar dilution, Mueller-Hinton agar; read-out: Minimal Inhibitory Concentration (MIC)
Experimental: as §1

Ent. aerogenes IFO 12979 = assay: MIC by agar dilution, Ent. aerogenes IFO 12979; details: Klebsiella aerogenes, IFO12979, 17 h, Mueller-Hinton agar, read-out: Minimal Inhibitory Concentration (MIC)
Experimental: as §1

Staph. aureus C-57 = assay: MIC by agar dilution, Staph. aureus C-57; details: Staphylococcus aureus, C57, 17 h, Mueller-Hinton agar, read-out: Minimal Inhibitory Concentration (MIC)
Experimental: as §1

B. subtilis ATCC 6633 = assay: MIC by agar dilution, B. subtilis ATCC 6633; details: Bacillus subtilis, ATCC6633, 17 h; B. subtilis ATCC 6633; agar dilution, Mueller-Hinton agar; read-out: Minimal Inhibitory Concentration (MIC)
Experimental: as §1

[3] = test system: S. epidermidis ATCC 12228; assay: MIC by agar dilution, S. epidermidis ATCC 12228; details: Staphylococcus epidermidis, ATCC12228, 17 h; S. epidermidis ATCC 12228; agar dilution, Mueller-Hinton agar; read-out: Minimal Inhibitory Concentration (MIC)
Experimental: as §1

Staph. aureus C-5216 = assay: MIC by agar dilution, Staph. aureus C-5216; details: Staphylococcus aureus, C5216, 17 h, Mueller-Hinton agar, read-out: Minimal Inhibitory Concentration (MIC)
Experimental: as §1

Staph. aureus C-5113 = assay: MIC by agar dilution, Staph. aureus C-5113; details: Staphylococcus aureus, C5113, 17 h, Mueller-Hinton agar, read-out: Minimal Inhibitory Concentration (MIC)
Experimental: as §1

Staph. aureus ATCC 6538P = assay: MIC by agar dilution, Staph. aureus ATCC 6538P; details: Staphylococcus aureus, ATCC6538P, 17 h; Staph. aureus ATCC 6538P; agar dilution, Mueller-Hinton agar; read-out: Minimal Inhibitory Concentration (MIC)
Experimental: as §1

[4] = test system: Ser. marcescens IFO 12648; assay: MIC by agar dilution, Ser. marcescens IFO 12648; details: Serratia marcescens, IFO12648, 17 h; Ser. marcescens IFO 12648; agar dilution, Mueller-Hinton agar; read-out: Minimal Inhibitory Concentration (MIC)
Experimental: as §1

MIC (K. pneumoniae NCTC 9632) [µg/mL] | MIC (Ps. aeruginosa DY-2) [µg/mL] | MIC [1] [µg/mL] | MIC (Ent. cloacae IFO 13535) [µg/mL] | MIC (Staph. aureus Smith) [µg/mL] | MIC (Prov. stuartii IFO 12930) [µg/mL] | MIC (M. morganii DY-1) [µg/mL] | MIC [2] [µg/mL] | MIC (E. coli No. 29) [µg/mL] | MIC (E. coli DY-1) [µg/mL] | MIC (P. vulgaris NCTC 8313) [µg/mL] | MIC (E. coli NIHJ JC-2) [µg/mL] | MIC (Ent. aerogenes IFO 12979) [µg/mL] | MIC (Staph. aureus C-57) [µg/mL] | MIC (B. subtilis ATCC 6633) [µg/mL] | MIC [3] [µg/mL] | MIC (Staph. aureus C-5216) [µg/mL] | MIC (Staph. aureus C-5113) [µg/mL] | MIC (Staph. aureus ATCC 6538P) [µg/mL] | MIC [4] [µg/mL] | SMILES
0.025 (≈ 0.045 µM) | 6.25 (≈ 11.2 µM) | 1.56 (≈ 2.81 µM) | 0.1 (≈ 0.18 µM) | 0.78 (≈ 1.4 µM) | 0.012 (≈ 0.0216 µM) | 0.025 (≈ 0.045 µM) | 0.2 (≈ 0.36 µM) | 0.025 (≈ 0.045 µM) | 0.012 (≈ 0.0216 µM) | 0.012 (≈ 0.0216 µM) | 0.012 (≈ 0.0216 µM) | 0.012 (≈ 0.0216 µM) | 25 (≈ 45 µM) | 0.2 (≈ 0.36 µM) | 0.05 (≈ 0.09 µM) | 1.56 (≈ 2.81 µM) | 0.78 (≈ 1.4 µM) | 0.2 (≈ 0.36 µM) | 0.012 (≈ 0.0216 µM) | CON=C(C(=O)NC1C(=O)N2C(C(=O)[O-])=C(C[n+]3ccn4c(C(C)=O)ccc4c3)CSC12)c1csc(N)n1 (stereo not drawn) [Ex. 18, 7-β-[(Z)-2-(2-aminothiazol-4-yl)-2-methoxyiminoacetamido]-3-(6-acetylpyrrolo[1,2-a]pyrazinium-2-yl)methyl-3-cephem-4-carboxylate]
0.05 (≈ 0.0878 µM) | 6.25 (≈ 11 µM) | 3.13 (≈ 5.49 µM) | 0.2 (≈ 0.351 µM) | 0.78 (≈ 1.37 µM) | 0.05 (≈ 0.0878 µM) | 0.025 (≈ 0.0439 µM) | 0.1 (≈ 0.176 µM) | 0.05 (≈ 0.0878 µM) | 0.025 (≈ 0.0439 µM) | ≤ 0.006 | 0.05 (≈ 0.0878 µM) | 0.012 (≈ 0.0211 µM) | 50 (≈ 87.8 µM) | 0.1 (≈ 0.176 µM) | 0.05 (≈ 0.0878 µM) | 1.56 (≈ 2.74 µM) | 1.56 (≈ 2.74 µM) | 0.2 (≈ 0.351 µM) | 0.1 (≈ 0.176 µM) | CCON=C(C(=O)NC1C(=O)N2C(C(=O)[O-])=C(C[n+]3ccn4c(C(C)=O)ccc4c3)CSC12)c1csc(N)n1 (stereo not drawn) [Ex. 19, 7-β-[(Z)-2-(2-aminothiazol-4-yl)-2-ethoxyiminoacetamido]-3-(6-acetylpyrrolo[1,2-a]pyrazinium-2-yl)methyl-3-cephem-4-carboxylate]
0.012 (≈ 0.0215 µM) | 3.13 (≈ 5.61 µM) | 0.78 (≈ 1.4 µM) | 0.1 (≈ 0.179 µM) | 0.78 (≈ 1.4 µM) | ≤ 0.006 | 0.012 (≈ 0.0215 µM) | 0.2 (≈ 0.359 µM) | ≤ 0.006 | ≤ 0.006 | 0.012 (≈ 0.0215 µM) | 0.025 (≈ 0.0448 µM) | ≤ 0.006 | 50 (≈ 89.7 µM) | 0.1 (≈ 0.179 µM) | 0.2 (≈ 0.359 µM) | 1.56 (≈ 2.8 µM) | 1.56 (≈ 2.8 µM) | 0.2 (≈ 0.359 µM) | 0.025 (≈ 0.0448 µM) | CON=C(C(=O)NC1C(=O)N2C(C(=O)[O-])=C(C[n+]3ccn4c(C(C)O)ccc4c3)CSC12)c1csc(N)n1 (stereo not drawn) [Ex. 20, 7-β-[(Z)-2-(2-aminothiazol-4-yl)-2-methoxyiminoacetamido]-3-[6-(1-hydroxyethyl)pyrrolo[1,2-a]pyrazinium-2-yl]methyl-3-cephem-4-carboxylate]
0.012 (≈ 0.0221 µM) | 6.25 (≈ 11.5 µM) | 0.39 (≈ 0.717 µM) | 0.1 (≈ 0.184 µM) | 0.78 (≈ 1.43 µM) | ≤ 0.006 | 0.012 (≈ 0.0221 µM) | 0.1 (≈ 0.184 µM) | ≤ 0.006 | ≤ 0.006 | ≤ 0.006 | 0.012 (≈ 0.0221 µM) | ≤ 0.006 | 50 (≈ 92 µM) | 0.1 (≈ 0.184 µM) | 0.2 (≈ 0.368 µM) | 0.78 (≈ 1.43 µM) | 3.13 (≈ 5.76 µM) | 0.2 (≈ 0.368 µM) | 0.012 (≈ 0.0221 µM) | CON=C(C(=O)NC1C(=O)N2C(C(=O)[O-])=C(C[n+]3ccn4c(CO)ccc4c3)CSC12)c1csc(N)n1 (stereo not drawn) [Ex. 21, 7-β-[(Z)-2-(2-aminothiazol-4-yl)-2-methoxyiminoacetamido]-3-(6-hydroxymethylpyrrolo[1,2-a]pyrazinium-2-yl)methyl-3-cephem-4-carboxylate]
